This passage reports TGI and GI50 results from PubChem BioAssay (NCI).

Common to all, as to test: inhibition of tumour cell growth, NCI panel, 48 h
Test [1] concerns COLO 205 colon.
Test [2] has as its system DLD-1 colon.
In test [3] the test system is HT29 colon.
Test [4] concerns K-562 leukemia.
The subject of test [5] is NCI-H23 lung.
Test [6] deals with SNB-19 CNS.
The test system of test [7] is SNB-75 CNS.
The subject of test [8] is SNB-78 CNS.
For test [9], the system named is U251 CNS.
In test [10] the test system is RPMI-8226 leukemia.

The structures appear in SMILES notation.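 Five concentrations, 48 hours, 96-well plates. GI50 is the concentration that inhibits growth by half. TGI: concentration producing complete growth inhibition.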

Take `NCC1(N2CCOCC2)C2CCCC21CNc1ccccc1` (centres undefined): the TGI in [1], in test [2], in [3], in test [4], in test [5] and in test [6] was more than 100 µM each time. The TGI in [7], in [8] and in test [9] was more than 100 µM in each case.

For `O=C(/C=C/c1ccc(O)cc1)c1cc(Cl)ccc1O`, the TGI in test [1] is more than 100 µM; in [2], more than 100 µM; in test [3], more than 100 µM; in [4] it was 71.3 µM; in [5], more than 100 µM; in [6], more than 100 µM. For the same compound, the TGI in test [7], in [8] and in [9] was more than 100 µM in each case.

With `NC(=O)c1cc([N+](=O)[O-])cc([N+](=O)[O-])c1`, the TGI in test [1], in [2], in test [3], in test [4], in test [5] and in [10] was more than 100 µM each time. The TGI in [6], in test [7] and in test [9] was more than 100 µM in each case.

Take `ClCCCCOC1CCCCO1` (centres undefined): the TGI in test [1], in test [2], in test [3], in test [5], in test [6] and in test [7] was more than 100 µM each time. The TGI in test [8] and in test [9] was more than 100 µM throughout.

As for `COC(=O)/C(=N/NC(C)(C)C)C(C(=O)OC)C(=O)C(=O)Nc1nc2ccc([N+](=O)[O-])cc2s1` (centres undefined), the TGI in [1], in test [3], in [4], in test [5], in [10] and in [6] was more than 100 µM in each case. Also, the TGI in [8] and in test [9] was more than 100 µM each time.

Consider `Oc1cccc(-c2nc(-c3ccccc3)[nH]c2-c2ccncc2)c1`, for which the GI50 was 4.88 µM in test [1]; 7.46 µM in test [3]; 11.7 µM in test [4]; 12.4 µM in [5]; 13.5 µM in test [10]; more than 25 µM in test [6]. Further, the GI50 is 9.93 µM in test [7] and 17.1 µM in [9]. For the same compound, the TGI in [1] is 12.2 µM; in test [3], more than 25 µM; in test [4], more than 25 µM; in test [5], more than 25 µM; in test [10], more than 25 µM; in test [6], more than 25 µM. Besides, the TGI in test [7] was more than 23.7 µM; in test [9], more than 25 µM.

As for `Fc1ccc(C2C3CCOc4c(ccc5ccccc45)C3=NN2c2ccccc2)cc1` (centres undefined), the GI50 in test [1] was more than 100 µM; in test [3], more than 100 µM; in test [4] it was 49 µM; in test [5] it was more than 100 µM; in test [10], 63.5 µM; in [6] it was 99.2 µM. In addition, the GI50 is more than 78.7 µM in [7] and 56.1 µM in test [9]. The TGI in test [1], in [3], in [4], in test [5], in test [10] and in test [6] was more than 100 µM in each case. Moreover, the TGI in test [7] and in [9] was more than 100 µM in each case.

As for `Cc1c(O)c(Br)c(C)c(O)c1Br` (tested in a mixture with another compound), the TGI is 3.6 µM in test [1]; 4.78 µM in test [3]; 11.6 µM in [4]; 4.62 µM in test [5]; 6.06 µM in test [10]; 41.7 µM in test [6]. Besides, the figures for the TGI in test [7] and in [9] were 29.3 µM and 24.4 µM, respectively.

Take `CNCCN(C)Cc1cn[nH]c1-c1ccc(OC2CC(OCCC3CCOCC3)C2)cc1` (centres undefined): the GI50 was 21.2 µM in [1]; 38.6 µM in test [3]; 33.3 µM in test [4]; more than 91.7 µM in [5]; 44.4 µM in test [10]; more than 100 µM in test [6]. Moreover, the GI50 in test [7] is 38.2 µM; in [9] it was 55.2 µM. Moreover, the TGI in [1] is 85.7 µM; in [3], more than 100 µM; in test [4] it was more than 100 µM; in test [5], more than 100 µM; in test [10], more than 100 µM; in [6], more than 100 µM. The TGI in test [7] and in test [9] was more than 100 µM throughout.

As for `Cc1cc2c(cc1Cl)SC(C(=O)c1ccc(Cl)c(Cl)c1)NS2(=O)=O` (centres undefined), the GI50 in test [1] was 21 µM; in test [3], 36.1 µM; in [4] it was 35.6 µM; in [5], 34.1 µM; in test [10], 24.6 µM; in [6], 35 µM. For the same compound, the GI50 is 31.3 µM in test [7] and 34.4 µM in test [9]. The TGI in test [1] is 44 µM; in test [3] it was more than 100 µM; in test [4], more than 100 µM; in test [5] it was 89.5 µM; in test [10] it was 56 µM; in test [6], more than 100 µM. Moreover, the TGI was 81.1 µM in test [7] and more than 100 µM in test [9].

As for `CC12CC(=O)C3C(CCC4=CC(=O)CCC43C)C1CC=C2CC(=O)O` (centres undefined), the TGI in test [1], in test [3], in test [4], in [5], in test [10] and in test [6] was more than 100 µM throughout. For the same compound, the TGI in [7] and in [9] was more than 100 µM each time.

On to `COC1=CC2CCN3Cc4cc5c(cc4C(C1O)C23)OCC5` (centres undefined), for which the GI50 in test [1] was 0.513 µM; in test [3], 0.97 µM; in [4] it was 3.51 µM; in test [5], 2.17 µM; in test [10], 15 µM; in test [6], 0.992 µM. Also, the GI50 is 1.24 µM in [7] and 1.53 µM in [9]. The TGI in [1] is 1.92 µM; in test [3], 9.48 µM; in test [4] it was more than 100 µM; in [5], 8.28 µM; in [10] it was more than 29.1 µM; in test [6] it was more than 24.5 µM. Besides, the figures for the TGI in test [7] and in test [9] were 6.24 µM and 11.4 µM, respectively.
